Measurements as given in paper PMC6149822, “A New Series of Pyrrole-Based Chalcones: Synthesis and Evaluation of Antimicrobial Activity, Cytotoxicity, and Genotoxicity” (Molecules : A Journal of Synthetic Chemistry and Natural …, 2017).
≈ marks a conversion by molar mass, not a printed value.

How the values were obtained:
[1] = system: K. pneumoniae (ATCC 700603); experiment: Microdilution susceptibility assay (MIC); type: cell-based; conditions: Klebsiella pneumoniae, ATCC700603
Method: (§1) Compounds 1–10 were screened for their antimicrobial activity against gram-negative bacteria, gram-positive bacteria, and yeasts, listed in Table 1. Bacteria were grown in Mueller-Hinton Broth and yeasts were grown in Sabouraud Dextrose Broth (SDB) during experiments. Overnight cultures were prepared routinely by subculturing of stock culture onto Mueller-Hinton Agar for bacteria and Sabouraud Dextrose Agar for yeasts.
(§2) Microdilution susceptibility assay was used for the determination of antibacterial and anticandidal efficacy of compounds 1–10. Chloramphenicol and ketoconazole were used as positive controls for bacteria and yeasts, respectively. All experiments were designed according to the Clinical Laboratory Standards Institute (CLSI). All chemicals were dissolved in dimethyl sulfoxide (DMSO) to obtain stock solution (10 mg/mL). Two-fold serial dilutions (800, 400, 200...0.78 µg/mL) of the compounds were prepared from stock solutions with dH2O. 100 µL of each solution was transferred to 96-well microtiter plates and 100 µL of 10^6 CFU/mL of bacteria and 2 × 10^3 of CFU/mL yeast were added to related wells. As negative controls, wells including microorganisms without agents and wells including agents without microorganisms were used. The plates were kept at 35 °C for 18–20 h and the growth was determined with resazurin (20 mg/mL). Assays were carried out in triplicate.

E. faecalis (ATCC 29212) [2] = experiment: Microdilution susceptibility assay (MIC); type: cell-based; conditions: Enterococcus faecalis, ATCC29212
Method: as §1, §2

E. faecalis (ATCC 51299) [3] = experiment: Microdilution susceptibility assay (MIC); type: cell-based; conditions: Enterococcus faecalis, ATCC51299
Method: as §1, §2

S. aureus (ATCC 25923) = experiment: Microdilution susceptibility assay (MIC); type: cell-based; conditions: Staphylococcus aureus, ATCC25923
Method: as §1, §2

E. coli (ATCC 25922) = experiment: Microdilution susceptibility assay (MIC); type: cell-based; conditions: Escherichia coli, ATCC25922
Method: as §1, §2

[4] = system: A549 human lung adenocarcinoma cell line; experiment: MTT assay; type: cell-based; conditions: for IC50: Homo sapiens, A549
Method: (§3) The anticancer effects of compounds 1–10 on A549 human lung adenocarcinoma (ATCC® CCL-185™), HepG2 human hepatocellular carcinoma (ATCC® HB-8065™), and C6 rat glioma (ATCC® CCL107™) cell lines were assessed using 3-(4,5-Dimethylthiazol-2-yl)-2,5-diphenyltetrazolium bromide (MTT) assay, whereas the selectivity of compounds 1–10 was tested using NIH/3T3 mouse embryonic fibroblast cell line (ATCC® CRL-1658™, London, UK). All cell lines were incubated according to the supplier’s recommendations. The cells were seeded as 1 × 10^4 cells into each well of the 96-well plates. MTT assay was performed as previously described. The compounds were tested between the concentrations equal to 1 mM and 0.000316 mM (1.0, 0.316, 0.10, 0.0316, 0.01, 0.00316, 0.001, 0.000316 mM). Stock solutions of compounds were prepared in dimethyl sulfoxide (DMSO) and further dilutions were made with fresh culture medium. The final DMSO concentration was under 1% [34] and cisplatin was used as a positive control. Inhibition % was calculated for each concentration according to the formula below, and IC50 values were determined by plotting a dose–response curve of inhibition % versus compound concentrations tested. All experiments were performed in quadruplicate.Inhibition % = 100 − [(ODtest compound − ODblank/ODsolvent control − ODblank)] × 100(1)

[5] = system: HepG2 human hepatocellular carcinoma cell line; experiment: MTT assay; type: cell-based; conditions: for IC50: Homo sapiens, HepG2
Method: as §3

C6 rat glioma cell line = experiment: MTT assay; type: cell-based; conditions: for IC50: Rattus norvegicus, C6
Method: as §3

[6] = system: NIH/3T3 mouse embryonic fibroblast cell line; experiment: MTT assay; type: cell-based; conditions: for IC50: Mus musculus, NIH3T3, healthy cells for selectivity
Method: as §3

C. albicans (ATCC 90028) = experiment: Microdilution susceptibility assay (MIC); type: cell-based; conditions: Candida albicans, ATCC90028
Method: as §1, §2

C. krusei (ATCC 6258) = experiment: Microdilution susceptibility assay (MIC); type: cell-based, Candida krusei; conditions: Pichia kudriavzevii, ATCC6258
Method: as §1, §2

E. faecalis (ATCC 29212) [7] = experiment: ATP luminescence microbial cell viability assay; type: cell-based, Enterococcus faecalis; conditions: 24 h treatment, result in words
Method: (§4) A model from BioTek Instruments Inc. combined with a BacTiter-Glo^TM Microbial Cell Viability assay (Promega Corp., Madison, WI, USA) was used to provide a sensitive and rapid method for determining the number of viable microbial cells in culture based on quantitation of the ATP present. […] After incubation, cultures were added into the wells (final concentration of bacteria was 5 × 10^5 CFU/mL and 2.5 × 10^6 CFU/mL for yeasts). After adding the BacTiter reagent, incubation time for bacteria and yeasts was 5 min and 15 min, respectively.
(§5) The assay generates a “glow-type” luminescent signal, produced by the luciferase reaction. Briefly, after chemicals and strains were incubated for 24 h, 100 µL of the culture was taken from each well and mixed with the same volume of the BacTiter-Glo™ reagent in a white, opaque-walled microtiter plate. Control wells containing medium without cells were prepared to obtain a value for background luminescence. Cells without compound were used as an ATP-positive control. The microplates were further incubated under agitation for 7 min. Bioluminescence was recorded in a multi-detection microplate reader (BioTek Synergy 2 Multi-Mode Microplate Reader, BioTek Instruments, Winooski, VT, USA). In Figure 3, results were given as percentage of untreated control, which is set at 100%. Experiments were performed in triplicate and each sample was measured in four replicates.

[8] = system: C. parapsilosis (ATCC 22019); experiment: Microdilution susceptibility assay (MIC); type: cell-based, Candida parapsilosis; conditions: Lodderomyces parapsilosis, ATCC22019
Method: as §1, §2

C. glabrata (ATCC 90030) = experiment: Microdilution susceptibility assay (MIC); type: cell-based, Candida glabrata; conditions: Nakaseomyces glabratus, ATCC90030
Method: as §1, §2

E. faecalis (ATCC 51299) [9] = experiment: ATP luminescence microbial cell viability assay; type: cell-based, Enterococcus faecalis; conditions: 24 h treatment, result in words
Method: as §4, §5

C. glabrata = experiment: ATP luminescence microbial cell viability assay; type: cell-based, Candida glabrata; conditions: 24 h treatment, result in words
Method: as §4, §5

SMILES | MIC [1] | MIC (E. faecalis (ATCC 29212) [2]) | MIC (E. faecalis (ATCC 51299) [3]) | MIC (S. aureus (ATCC 25923)) | MIC (E. coli (ATCC 25922)) | MIC (C. albicans (ATCC 90028)) | IC50 [4] | IC50 [5] | IC50 (C6 rat glioma cell line) | MIC (C. krusei (ATCC 6258)) | MIC [8] | melting point | MIC (C. glabrata (ATCC 90030)) | IC50 [6] | antimicrobial activity in ATP bioluminescence assay (E. faecalis (ATCC 29212) [7]) | also measured
N.N.[Cl][Pt][Cl] [Cisplatin, reference compound] |  |  |  |  |  |  |  |  |  |  |  |  |  |  |  | IC50 A549 Cell Line [4]: 19 µg/mL; IC50 HepG2 Cell Line [5]: 38 µg/mL; IC50 C6 Cell Line (C6 rat glioma cell line): 46 µg/mL; IC50 NIH/3T3 Cell Line ([6]; healthy cells for selectivity): >300 µg/mL
Cn1cccc1C(=O)C=Cc1ccc(-c2cccc([N+](=O)[O-])c2)o1 [Compound 2, 1-(1-Methyl-1H-pyrrol-2-yl)-3-(5-(3-nitrophenyl)furan-2-yl)prop-2-en-1-one] | 200 µg/mL (≈ 621 µM) | 100 µg/mL (≈ 310 µM) | 100 µg/mL (≈ 310 µM) | 200 µg/mL (≈ 621 µM) | 100 µg/mL (≈ 310 µM) | 100 µg/mL (≈ 310 µM) | 322 µg/mL (≈ 999 µM) | 277 µg/mL (≈ 859 µM) | 258 µg/mL (≈ 800 µM) | 100 µg/mL (≈ 310 µM) | 100 µg/mL (≈ 310 µM) | 123 to 124 °C | 100 µg/mL (≈ 310 µM) | > 322 µg/mL | sensitive | antimicrobial activity in ATP bioluminescence assay (E. faecalis (ATCC 51299) [9]): antimicrobial activity close to chloramphenicol
Cn1cccc1C(=O)C=Cc1ccc(-c2ccc(Cl)cc2[N+](=O)[O-])o1 [Compound 4, 1-(1-Methyl-1H-pyrrol-2-yl)-3-(5-(2-nitro-4-chlorophenyl)furan-2-yl)prop-2-en-1-one] | 100 µg/mL (≈ 280 µM) | 200 µg/mL (≈ 561 µM) | 200 µg/mL (≈ 561 µM) | 100 µg/mL (≈ 280 µM) | 100 µg/mL (≈ 280 µM) | 200 µg/mL (≈ 561 µM) | > 357 µg/mL | 100 µg/mL (≈ 280 µM) | > 357 µg/mL | 200 µg/mL (≈ 561 µM) | 50 µg/mL (≈ 140 µM) | 133 to 134 °C | 100 µg/mL (≈ 280 µM) | 36 µg/mL (≈ 101 µM) |  | antifungal activity in ATP bioluminescence assay (C. glabrata): antifungal activity close to ketoconazole

Second part, led by results:

MIC [1] | MIC (E. faecalis (ATCC 29212) [2]) | MIC (E. faecalis (ATCC 51299) [3]) | MIC (S. aureus (ATCC 25923)) | MIC (E. coli (ATCC 25922)) | MIC (C. albicans (ATCC 90028)) | IC50 [4] | IC50 [5] | IC50 (C6 rat glioma cell line) | MIC (C. krusei (ATCC 6258)) | MIC [8] | melting point | MIC (C. glabrata (ATCC 90030)) | SMILES | IC50 [6] | antimicrobial activity in ATP bioluminescence assay (E. faecalis (ATCC 29212) [7]) | also measured
50 µg/mL (≈ 155 µM) | 50 µg/mL (≈ 155 µM) | 100 µg/mL (≈ 309 µM) | 25 µg/mL (≈ 77.4 µM) | 25 µg/mL (≈ 77.4 µM) |  |  |  |  |  |  |  |  | O=C(N[C@H](CO)[C@H](O)c1ccc([N+](=O)[O-])cc1)C(Cl)Cl [Chloramphenicol, reference compound] |  |  | 
200 µg/mL (≈ 621 µM) | 100 µg/mL (≈ 310 µM) | 200 µg/mL (≈ 621 µM) | 200 µg/mL (≈ 621 µM) | 100 µg/mL (≈ 310 µM) | 100 µg/mL (≈ 310 µM) | 0.3 µg/mL (≈ 0.931 µM) | 322 µg/mL (≈ 999 µM) | 84 µg/mL (≈ 261 µM) | 200 µg/mL (≈ 621 µM) | 100 µg/mL (≈ 310 µM) | 179 to 181 °C | 200 µg/mL (≈ 621 µM) | Cn1cccc1C(=O)C=Cc1ccc(-c2ccc([N+](=O)[O-])cc2)o1 [Compound 1, 1-(1-Methyl-1H-pyrrol-2-yl)-3-(5-(4-nitrophenyl)furan-2-yl)prop-2-en-1-one] | 109 µg/mL (≈ 338 µM) | sensitive | 
